Read-outs that look alike come from different tables or passages of the source. Marks after values point to notes of the source that are not given here. Where a SMILES comes first, the peptide text is derived from it. Where no end group is shown, it is not given here. [ ]: non-standard residue; d: D form.
Key:
[1] = target: chymotrypsin (Bos taurus, UniProt P00766)
Protocol: One of the hurdles in developing peptide-based antimicrobials is peptide stability to protease (Wang, G. (2010) Antimicrobial Peptides: Discovery, Design and Novel Therapeutic Strategies, CABI, England). […] This was done by modifying the standard microdilution antimicrobial assays (Wang, G. (2008) J. Biol. Chem., 283:32637-32643). Specifically, the bacterial wells with a high peptide concentration (e.g. 100 μM) are duplicated (e.g., two for antimicrobial assays and two for protease stability assays). As an illustration, chymotrypsin was applied to the duplicated wells at a peptide:protease molar ratio of 25:1. Numerous peptides were screened in this manner.
To identify protease-resistant peptide templates, 30 synthetic peptides were screened (Table 9; Wang et al. (2008) Antimicrob. Agents Chemother., 52:3438-3440). A standard microdilution assay protocol (Li et al. (2006) J. Am. Chem. Soc., 128:5776-5785) was modified to include proteases into the duplicated wells with high concentrations of peptide so that both antimicrobial activity and protease stability could be evaluated simultaneously. […] (peptide:protease molar ratio of 40:1).

[2] = system: human erythrocytes; details: human red blood cells; Table 6
Protocol: Peptide hemolysis was assayed using an established protocol (Malmsten et al. (2011) PLoS One 6:e16400). In brief, fresh blood, obtained from the UNMC Blood Bank, was washed three times with PBS buffer and made into a 5% solution. To 90 μL of this solution, 10 μL of a peptide solution was added and incubated at 37° C. for one hour. After centrifugation at 13,000 rpm, aliquots of the supernatant were transferred to a fresh 96 well microplate. The absorbance of the solutions was measured at 545 nm to detect the amount of hemoglobin released. The percent lysis was calculated by assuming 100% release when treated with 2% Triton X-100 and no lysis (0%) when treated with PBS buffer. HL50 was the peptide concentration that caused 50% lysis of human erythrocytes. The cell selectivity (CS) indexes were calculated as the ratio of HL50 to the MIC of the peptide against S. aureus USA300.
The hemolytic effects of the six peptides were also compared on human red blood cells (hRBC) using an established protocol (Malmsten et al. (2011) PLoS One 6:e16400). […] A high TI indicates good cell selectivity.
Peptide hemolysis was assayed using an established protocol (Menousek et al. (2012) Int. J. Antimicrob. Agents 39:402-406; Malmsten et al. (2011) PLoS One 6:e16400). Briefly, blood cells were washed three times with phosphate-buffered saline (PBS) and were diluted to a 5% solution. Following peptide treatment, incubation at 37° C. for 1 hour and centrifugation at 13,000 rpm, aliquots of the supernatant were transferred to a fresh 96-well microplate. To assess peptide cytotoxicity, the amount of hemoglobin released was measured at 545 nm. Percent lysis was calculated by assuming 100% release when human blood cells were treated with 2% Triton X-100 and 0% release when they were incubated with PBS buffer.

[3] = system: Escherichia coli K12; details: E. coli K12; Table 5 screen
[4] = system: methicillin-resistant Staphylococcus aureus USA300 LAC; details: S. aureus USA300; Table 5 screen
[5] = system: Gram-positive bacteria; design: key: Y, Yes; N, No; details: data from the APD; cited from earlier work
[6] = system: Gram-negative bacteria; design: key: Y, Yes; N, No; details: data from the APD; cited from earlier work
[7] = E. coli K12 growth with chymotrypsin, peptide:protease molar ratio 25:1
[8] = antimicrobial assay with chymotrypsin, peptide:protease molar ratio 40:1, E. coli K12 for peptides inactive against S. aureus

For `CC[C@@H](C)[C@@H](NC(=O)[C@H](CCCNC(=N)N)NC(=O)[C@H](CCC(N)=O)NC(=O)[C@@H](NC(=O)[C@H](NC(=O)[C@H](CCCNC(=N)N)NC(=O)[C@H](CCCCN)NC(=O)[C@H](Cc1ccccc1)NC(=O)CN)[C@H](C)CC)C(C)C)C(=O)N[C@@H](CCCCN)C(=O)N[C@@H](CC(=O)O)C(=O)N[C@@H](Cc1ccccc1)C(=O)N[C@H](CC(C)C)C(=O)N[C@@H](CCCNC(=N)N)C(=O)N[C@@H](CC(N)=O)C(=O)N[C@@H](CC(C)C)C(=O)N[C@H](C(N)=O)C(C)C` [GF-17d3] (H-GFKR[dI]VQR[dI]KDF[dL]RNLV-NH2; N-terminus assumed), the “Stability (to chymotrypsin)” value [1, 7] was “+” and the “Stability (to chymotrypsin)” value [1, 8] was “+^c”.

In the case of EKIGKEFKRIVQRIKDFLRN [EK-20], the “Stability (to chymotrypsin)” value [1, 8] is reported as “−”.

For FFGKVLKLIRKIF-NH2 [DASamP1], the “HL50 (μM), concentration at which 50% red blood cells are lysed” value [2] was 25 µM.

In the case of “FFHHIFRGIVHVGKTIHRLVTG [Piscidin 1, reference compound]”, the “HL50 (μM), concentration at which 50% red blood cells are lysed” value [2] is reported as 20 µM.

With FKRIVQRIKDFLRNLVPRTE [FK-21] the “Stability (to chymotrypsin)” value [1, 8] was “−”.

In the case of “GFKDLLKGAAKALVKTVLF-NH2 [Ascaphin-8, reference compound]”, the “HL50 (μM), concentration at which 50% red blood cells are lysed” value [2] is reported as 45 µM.

For GFKRIVQRIKDFLRNL-NH2 [GF-16], the “Stability (to chymotrypsin)” value [1, 8] was “−”.

For GFKRIVQRIKDFLRNLV-NH2 [GF-17], the “Stability (to chymotrypsin)” value [1, 7] was “−” and the “Stability (to chymotrypsin)” value [1, 8] was “−”.

For “GFLSILKKVLPKVMAHMK-NH2 [Melectin, reference compound]”, the “MICs (μM) EC” value [3] was 12.5 to 25 µM and the “MICs (μM) SA” value [4] was 12.5 to 25 µM.

For GKEFKRIVQRIKDFLRNLVPR [GK-21], the “Stability (to chymotrypsin)” value [1, 7] was “−” and the “Stability (to chymotrypsin)” value [1, 8] was “−”.

For “GKPRPYSPRPTSHPRPIRV [Drosocin, reference compound]”, the “MICs (μM) EC” value [3] was >100 µM and the “MICs (μM) SA” value [4] was >100 µM.

With “GLLGLLGSVVSHVVPAIVGHF-NH2 [Maculatin 1.3, reference compound]” the “HL50 (μM), concentration at which 50% red blood cells are lysed” value [2] was 25 µM.

In the case of “GNNRPVYIPQPRPPHPRI [Apidaecin IA, reference compound]”, the “MICs (μM) EC” value [3] is reported as >100 µM and the “MICs (μM) SA” value [4] is reported as >100 µM.

With GRFKRFRKKFKKLFKKLS-NH2 [BMAP-18] the “Stability (to chymotrypsin)” value [1, 8] was “−”.

In the case of “HVDKKVADKVLLLKQLRIMRLLTRL [Spinigerin, reference compound]”, the “MICs (μM) EC” value [3] is reported as >81 µM and the “MICs (μM) SA” value [4] is reported as >81 µM.

In the case of IKWKKLLRAAKRIL-NH2 [DASamP2], the “HL50 (μM), concentration at which 50% red blood cells are lysed” value [2] is reported as 75 µM.

In the case of “IWLTALKFLGKHAAKHLAKQQLSKL [Lycotoxin I, reference compound]”, the “HL50 (μM), concentration at which 50% red blood cells are lysed” value [2] is reported as 125 µM.

With KIGKEFKRIVQRIKDFLRNLVP [KI-22] the “Stability (to chymotrypsin)” value [1, 7] was “−” and the “Stability (to chymotrypsin)” value [1, 8] was “−”.

In the case of “RPKHPIKHQGLPQEVLNENLLRF [Isracidin, reference compound]”, the “MICs (μM) EC” value [3] is reported as >100 µM and the “MICs (μM) SA” value [4] is reported as >100 µM.

With “RQRVEELSKFSKKGAAARRRK [Misgurin, reference compound]” the “MICs (μM) EC” value [3] was >84 µM and the “MICs (μM) SA” value [4] was >84 µM.

For “Temporin A: temporin, APD ID 94, SEQ ID NO: 14 (FLPLIGRVLSGIL; listed as Rana temporaria)”, the “Activity G+ (activity against Gram-positive bacteria)” value (from here on “Activity G+”) [5] is given as “Y” and the “Activity G− (activity against Gram-negative bacteria)” value (“Activity G−” below) [6] is given as “N”.

In the case of “Temporin B: temporin, APD ID 95, SEQ ID NO: 19 (LLPIVGNLLKSLL; listed as Rana temporaria)”, the “Activity G+” value [5] is given as “Y” and the “Activity G−” value [6] is given as “N”.

In the case of “Temporin C: temporin, APD ID 96, SEQ ID NO: 21 (LLPILGNLLNGLL; listed as Rana temporaria)”, the “Activity G+” value [5] is given as “Y” and the “Activity G−” value [6] is given as “N”.

In the case of “Temporin E: temporin, APD ID 97, SEQ ID NO: 16 (VLPIIGNLLNSLL; listed as Rana temporaria)”, the “Activity G+” value [5] is listed as “Y” and the “Activity G−” value [6] is listed as “N”.

In the case of “Temporin F: temporin, APD ID 98, SEQ ID NO: 15 (FLPLIGKVLSGIL; listed as Rana temporaria)”, the “Activity G+” value [5] is given as “Y/Y” and the “Activity G−” value [6] is given as “Y/Y”.

For “Temporin G: temporin, APD ID 101, SEQ ID NO: 12 (FFPVIGRILNGIL; listed as Rana temporaria)”, the “Activity G+” value [5] is given as “Y/Y” and the “Activity G−” value [6] is given as “Y/Y”.

For “Temporin H: temporin, APD ID 859, SEQ ID NO: 17 (LSPNLLKSLL; listed as Rana temporaria)”, the “Activity G+” value [5] is listed as “Y” and the “Activity G−” value [6] is listed as “N”.

For “Temporin K: temporin, APD ID 100, SEQ ID NO: 20 (LLPNLLKSLL; listed as Rana temporaria)”, the “Activity G+” value [5] is listed as “Y” and the “Activity G−” value [6] is listed as “N”.

For “Temporin L: temporin, APD ID 99, SEQ ID NO: 11 (FVQWFSKFLGRIL; listed as Rana temporaria)”, the “Activity G+” value [5] is given as “Y/Y” and the “Activity G−” value [6] is given as “Y/Y”.

In the case of “Temporin-1Lb: temporin, APD ID 110, SEQ ID NO: 13 (NFLGTLINLAKKIM; listed as Rana luteiventris)”, the “Activity G+” value [5] is given as “Y” and the “Activity G−” value [6] is given as “N”.

For “Temporin-SHf: temporin, APD ID 1534, SEQ ID NO: 10 (FFFLSRIF; listed as Pelophylax saharicus)”, the “Activity G+” value [5] is given as “Y/Y” and the “Activity G−” value [6] is given as “Y/Y”.

From patent US10723764B2, “Anti-microbial peptides and methods of use thereof” (priority 2011, dated 2020)
